Reference: patent US20240197714A1, “METHODS FOR THE ADMINISTRATION OF CERTAIN VMAT2 INHIBITORS” (Neurocrine Biosciences, Inc., priority 2021, published 2024)
Like-named read-outs stand apart in the source and are kept apart here.

How the values were obtained:
[1] = Phase 1 open-label 2-sequence crossover study, single-dose pharmacokinetics of deutetrabenazine metabolites in healthy subjects; format: in vivo, human; settings: for AUC / Cmax / half-life: both sexes, human, oral, plasma; for AUC / Cmax: healthy subjects, single dose deutetrabenazine 24 mg, % CV in parentheses; for half-life: 24 mg; for AUC (% of Total): share of total circulating DHTBZ exposure after single dose deutetrabenazine 24 mg
Protocol: A phase 1, open-label, 2-sequence crossover study was conducted to evaluate the HTBZ PK profile following administration of valbenazine (40 mg) or deutetrabenazine (24 mg) to a total of 18 healthy male and female subjects.
Subjects received a single dose of valbenazine 40 mg on Day 1 and a single dose of deutetrabenazine 24 mg on Day 16; or received a single dose of deutetrabenazine 24 mg on Day 1 and a single dose of valbenazine 40 mg on Day 16. Valbenazine 40 mg was administered as one 40 mg capsule and deutetrabenazine 24 mg was administered as two 12 mg tablets. Study drug was administered at approximately 0800 hours, approximately 30 minutes after the start of a standard breakfast.
PK parameters were determined using non-compartmental analysis with Phoenix WinNonlin 8.3 software. The in vitro pharmacology of the deuterated HTBZ metabolites was assessed using competitive radioligand binding assays.

[2] = AUSTEDO label; likely similar in CYP2D6 poor metabolizers; cited from earlier work
[3] = metabolites of AUSTEDO, approximate, read-out: half-life (converted)

| AUC [1] | Cmax [1] | half-life [1, 3] | AUC (% of Total) [1] | half-life ([1]; after deutetrabenazine administration, read-out: mean half-life (converted)) | SMILES | increase of exposure when taking a strong CYP2D6 inhibitor [2] |
| --- | --- | --- | --- | --- | --- | --- |
| 396 ng·h/mL | 32.2 ng/mL | ~12 h | 66% | – | [2H]C([2H])([2H])Oc1cc2c(cc1OC([2H])([2H])[2H])[C@@H]1C[C@H](O)[C@@H](CC(C)C)CN1CC2 [[−]-α-DHTBZ, (−)-α-3-isobutyl-9,10-di(methoxy-d3)-1,3,4,6,7, 11b-hexahydro-2H-pyrido[2,1-a]isoquinolin-2-ol] | – |
| 15.8 ng·h/mL | 1.7 ng/mL | ~8 h | 3% | – | [2H]C([2H])([2H])Oc1cc2c(cc1OC([2H])([2H])[2H])[C@@H]1C[C@@H](O)[C@@H](CC(C)C)CN1CC2 [[−]-β-DHTBZ, (−)-β-3-isobutyl-9,10-di(methoxy-d3)-1,3,4,6,7,11b-hexahydro-2H-pyrido[2,1-a]isoquinolin-2-ol] | – |

Further lines, the compound ahead of its results:

| SMILES | AUC [1] | Cmax [1] | half-life [1, 3] | AUC (% of Total) [1] | half-life ([1]; after deutetrabenazine administration, read-out: mean half-life (converted)) | increase of exposure when taking a strong CYP2D6 inhibitor [2] |
| --- | --- | --- | --- | --- | --- | --- |
| [2H]C([2H])([2H])Oc1cc2c(cc1OC([2H])([2H])[2H])[C@H]1C[C@@H](O)[C@H](CC(C)C)CN1CC2 [[+]-α-DHTBZ] | 11 ng·h/mL | 1.2 ng/mL | ~6 h | 2% | – | – |
| [2H]C([2H])([2H])Oc1cc2c(cc1OC([2H])([2H])[2H])[C@H]1C[C@H](O)[C@H](CC(C)C)CN1CC2 [[+]-β-DHTBZ, (+)-β-3-isobutyl-9,10-di(methoxy-d3)-1,3,4,6,7,11b-hexahydro-2H-pyrido[2,1-a]isoquinolin-2-ol] | 176 ng·h/mL | 20.4 ng/mL | ~5 h | 29% | 7.7 h | – |
| COc1cc2c(cc1OC)[C@@H]1C[C@H](O)[C@@H](CC(C)C)CN1CC2 [α-DHTBZ] | – | – | – | – | – | approximately 3 fold |
